Measured values as given in ChEMBL document CHEMBL1150172, “Sodium 1-(12-hydroxy)octadecanyl sulfate, an MMP2 inhibitor, isolated from a tunicate of the family Polyclinidae” (J Nat Prod, 2002).

Target: 72 kDa type IV collagenase (Homo sapiens, UniProt P08253)
Test: Inhibition of recombinant MMP2

Chain of 72 kDa type IV collagenase (P08253 whole entry): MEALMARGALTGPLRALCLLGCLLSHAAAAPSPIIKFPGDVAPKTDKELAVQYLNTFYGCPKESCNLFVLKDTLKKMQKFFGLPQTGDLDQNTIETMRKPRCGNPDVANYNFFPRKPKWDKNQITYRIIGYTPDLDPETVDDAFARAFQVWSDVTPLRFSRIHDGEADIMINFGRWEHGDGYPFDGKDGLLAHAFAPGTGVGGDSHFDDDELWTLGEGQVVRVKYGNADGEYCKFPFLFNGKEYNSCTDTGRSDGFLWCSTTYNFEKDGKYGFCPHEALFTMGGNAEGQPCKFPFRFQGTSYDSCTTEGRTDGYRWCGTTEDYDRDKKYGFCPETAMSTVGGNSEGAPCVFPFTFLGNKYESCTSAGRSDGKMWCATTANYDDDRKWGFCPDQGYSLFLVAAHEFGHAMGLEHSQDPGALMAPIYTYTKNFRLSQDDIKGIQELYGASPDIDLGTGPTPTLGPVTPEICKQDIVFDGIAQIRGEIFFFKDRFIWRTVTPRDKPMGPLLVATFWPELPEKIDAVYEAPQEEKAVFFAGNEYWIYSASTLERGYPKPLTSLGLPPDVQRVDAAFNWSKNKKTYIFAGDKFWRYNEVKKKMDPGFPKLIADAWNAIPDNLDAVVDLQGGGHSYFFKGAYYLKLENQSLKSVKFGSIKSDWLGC

Molecule `CCCCCCC(O)CCCCCCCCCCCOS(=O)(=O)O` (stereo unspecified) has an IC50 of 23.2 µM.
